Columns and labels:
[1] = system: small capillaries; test: inventor's experiments on the effect of DMSO on blood vessels; conditions: DMSO in a concentration ranging between 50% and 100%; best results at substantially 100%
Text: The higher the DMSO concentration was taken, the better result was achieved. Such phenomenon may effectively contribute to stopping leakage of capillaries and formation of blister, whereas the leakage and blister are the major factors leading to infections and delayed wound healing, and therefore to scar formation. […] The best results have been observed for usage of DMSO in the concentration of substantially 100%.
(d) DMSO (dimethyl sulfoxide) is known as an industrial solvent that has the ability to penetrate plant and animal tissues and to preserve living cells during freezing. It has bacteriostatic, anti-inflammatory, analgesic, radioprotective, fibrinolytic and vasodilative properties, and inhibits cholinesterase and granulation tissue. DMSO also has been used as an agent to increase the penetrability of other substances. […] This capability of DMSO has increased with an increase of the DMSO concentration, and the best results have been observed for usage of DMSO (USP grade) in the concentration essentially of 100%.

[2] = biological target: T1, Human Leukocyte Elastase (Homo sapiens, UniProt P08246); conditions: Q. Ying et al., 1991; cited from earlier work
T1 sequence (P08246 30-267): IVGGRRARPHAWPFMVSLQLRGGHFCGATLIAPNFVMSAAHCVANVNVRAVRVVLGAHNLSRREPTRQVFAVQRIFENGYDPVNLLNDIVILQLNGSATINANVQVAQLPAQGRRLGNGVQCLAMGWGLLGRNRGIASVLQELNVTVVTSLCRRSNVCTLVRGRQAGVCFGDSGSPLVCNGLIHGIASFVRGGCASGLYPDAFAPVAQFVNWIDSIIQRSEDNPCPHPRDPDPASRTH

| SMILES | effect on small capillaries [1] | elastase inhibition [2] |
| --- | --- | --- |
| C[S+](C)[O-] [DMSO, dimethyl sulfoxide] | constricts small capillaries | – |
| C[C@H]1[C@H](C)CC[C@]2(C(=O)O)CC[C@]3(C)C(=CC[C@@H]4[C@@]5(C)CC[C@H](O)C(C)(C)[C@@H]5CC[C@]43C)[C@H]12 [Ursolic acid] | – | potent elastase inhibitor |

Source: patent US20110135763A1, “Antiseptic formulation especially for prevention of complications associated with skin burns” (priority 2009, published 2011)
